Experimental data taken from patent publication US9499519B2, “Fused pyrimidine compounds and use thereof” (Medivation Technologies, Inc., priority 2012, dated 2016).
Where “and” joins values, the source holds several entries; their conditions need not be identical. Identical values can stand only once.

Key:
Type in all cases: biochemical
[1] = molecular target: T1, IR (Homo sapiens, UniProt P06213); assay: In vitro IR enzymatic assay (ADP-Glo kinase assay); details: activated IR
T1 construct: purchased Millipore 14-803
Method: IC50 values of the compounds of the invention against IGF-1R and IR were measured in vitro using an ADP-Glo kinase assay Kit (Promega). […] Kinase reactions in both assays were conducted at 30° C. for 20 min with increasing concentrations of compounds of the invention.
Additional compounds of the invention were screened against activated IR.

[2] = molecular target: Trk A (Homo sapiens, UniProt P04629); assay: HotSpot kinase assay: Trk A; details: 100 nM compound, read-out: % Enzyme Inhibition @ 100 nM Trk A
Method: Kinase assays were performed using additional compounds against a panel of 3 kinases: Trk A; Trk B; and Trk C. Each compound was tested at a concentration of 0.1 μM in single duplicate mode against the 3 kinases. Compounds were prepared as 10 mM stock solutions in DMSO prior to use in the assay. […] IC50 values and curve fits were obtained using Prism (GraphPad Software). […]
The screening was performed using the “HotSpot” assay platform. The assay measures the conversion of a peptide substrate to ^33P-labelled phosphorylated product. Briefly, specific kinase/substrate pairs along with required cofactors were prepared in reaction buffer. Specifically, the substrate was prepared in reaction buffer (20 mM Hepes, pH 7.5; 10 mM MgCl2; 1 mM EGTA; 0.02% Brij35; 0.02 mg/mL BSA; 0.1 mM Na3VO4; 2 mM DTT; 1% DMSO), followed by delivery of any required cofactor to the resulting substrate solution. The corresponding kinase was delivered into the substrate solution and the reaction mixture was mixed gently. Compound was delivered into the reaction mixture, followed 15-20 minutes later by addition of a mixture of ATP (Sigma, St. Louis Mo.) and ^33P ATP (specific activity 0.01 μCi/μL final; Perkin Elmer, Waltham, Mass.) to a final concentration of 10 μM-30 μM to initiate the reaction. Reactions were carried out at room temperature for 120 minutes, followed by spotting of the reactions onto P81 ion exchange filter paper (Whatman #3698-915; Whatman Inc., Piscataway, N.J.). Unbound phosphate was removed by extensive washing of filters in 0.75% phosphoric acid. […] The percent of enzyme inhibition was calculated based on the percent of remaining kinase activity.

[3] = molecular target: Trk C (Homo sapiens, UniProt Q16288); assay: HotSpot kinase assay: Trk C
Trk C, sequence (Q16288 32-839): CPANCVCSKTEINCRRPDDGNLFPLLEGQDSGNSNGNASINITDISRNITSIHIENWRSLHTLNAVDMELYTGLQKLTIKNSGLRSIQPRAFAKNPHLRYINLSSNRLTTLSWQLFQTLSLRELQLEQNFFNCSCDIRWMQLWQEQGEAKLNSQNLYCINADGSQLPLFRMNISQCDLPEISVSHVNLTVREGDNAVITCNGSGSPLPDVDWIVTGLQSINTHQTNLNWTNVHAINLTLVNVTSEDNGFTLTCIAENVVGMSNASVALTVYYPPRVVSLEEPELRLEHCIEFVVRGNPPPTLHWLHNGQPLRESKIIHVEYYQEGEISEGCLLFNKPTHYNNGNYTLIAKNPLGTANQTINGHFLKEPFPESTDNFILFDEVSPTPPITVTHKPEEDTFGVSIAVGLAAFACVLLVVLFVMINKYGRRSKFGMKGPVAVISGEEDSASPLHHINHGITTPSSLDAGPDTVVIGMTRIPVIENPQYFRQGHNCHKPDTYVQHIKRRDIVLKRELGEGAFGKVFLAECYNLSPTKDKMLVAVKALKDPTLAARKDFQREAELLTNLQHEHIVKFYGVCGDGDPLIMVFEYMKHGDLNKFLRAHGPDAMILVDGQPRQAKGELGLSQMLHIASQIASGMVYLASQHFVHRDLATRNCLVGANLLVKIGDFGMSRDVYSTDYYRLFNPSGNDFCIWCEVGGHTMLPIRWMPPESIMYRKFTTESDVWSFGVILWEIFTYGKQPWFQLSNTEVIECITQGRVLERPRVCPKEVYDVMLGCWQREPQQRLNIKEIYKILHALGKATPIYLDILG

T1 sequence (P06213 28-1382): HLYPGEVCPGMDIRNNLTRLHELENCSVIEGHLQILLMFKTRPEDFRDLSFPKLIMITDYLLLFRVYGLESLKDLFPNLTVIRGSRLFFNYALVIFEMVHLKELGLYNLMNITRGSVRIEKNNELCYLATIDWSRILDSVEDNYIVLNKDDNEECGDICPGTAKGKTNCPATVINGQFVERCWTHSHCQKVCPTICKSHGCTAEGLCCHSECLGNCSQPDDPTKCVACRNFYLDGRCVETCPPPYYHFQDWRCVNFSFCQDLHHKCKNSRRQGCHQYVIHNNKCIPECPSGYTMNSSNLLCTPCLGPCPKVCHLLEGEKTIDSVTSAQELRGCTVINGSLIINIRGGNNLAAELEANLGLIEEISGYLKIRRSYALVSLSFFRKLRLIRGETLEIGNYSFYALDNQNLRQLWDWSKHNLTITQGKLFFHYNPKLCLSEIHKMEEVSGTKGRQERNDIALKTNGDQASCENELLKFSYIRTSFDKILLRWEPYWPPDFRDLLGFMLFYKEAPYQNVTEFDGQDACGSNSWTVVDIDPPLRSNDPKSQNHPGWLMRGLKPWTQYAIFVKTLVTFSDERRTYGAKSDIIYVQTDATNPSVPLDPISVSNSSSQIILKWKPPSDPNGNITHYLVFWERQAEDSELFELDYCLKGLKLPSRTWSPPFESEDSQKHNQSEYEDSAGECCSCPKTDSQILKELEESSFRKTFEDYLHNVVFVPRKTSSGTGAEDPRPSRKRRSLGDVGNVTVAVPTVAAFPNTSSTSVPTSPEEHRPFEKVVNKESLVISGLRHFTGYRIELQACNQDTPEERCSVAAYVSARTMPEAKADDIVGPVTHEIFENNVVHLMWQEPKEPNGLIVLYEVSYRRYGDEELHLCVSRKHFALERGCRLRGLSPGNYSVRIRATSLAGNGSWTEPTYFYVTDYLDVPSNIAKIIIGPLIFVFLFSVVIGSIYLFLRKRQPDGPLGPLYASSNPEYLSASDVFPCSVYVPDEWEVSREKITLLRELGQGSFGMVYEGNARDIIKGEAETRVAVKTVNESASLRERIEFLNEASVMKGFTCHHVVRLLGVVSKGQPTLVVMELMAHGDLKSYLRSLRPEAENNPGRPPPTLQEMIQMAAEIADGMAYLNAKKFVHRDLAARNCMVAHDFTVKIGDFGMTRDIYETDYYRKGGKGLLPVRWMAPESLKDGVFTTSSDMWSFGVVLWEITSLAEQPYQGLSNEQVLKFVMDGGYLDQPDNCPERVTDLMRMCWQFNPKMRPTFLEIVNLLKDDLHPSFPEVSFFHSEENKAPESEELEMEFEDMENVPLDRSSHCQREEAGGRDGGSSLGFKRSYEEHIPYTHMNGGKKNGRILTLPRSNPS
Trk A, sequence (P04629 33-796): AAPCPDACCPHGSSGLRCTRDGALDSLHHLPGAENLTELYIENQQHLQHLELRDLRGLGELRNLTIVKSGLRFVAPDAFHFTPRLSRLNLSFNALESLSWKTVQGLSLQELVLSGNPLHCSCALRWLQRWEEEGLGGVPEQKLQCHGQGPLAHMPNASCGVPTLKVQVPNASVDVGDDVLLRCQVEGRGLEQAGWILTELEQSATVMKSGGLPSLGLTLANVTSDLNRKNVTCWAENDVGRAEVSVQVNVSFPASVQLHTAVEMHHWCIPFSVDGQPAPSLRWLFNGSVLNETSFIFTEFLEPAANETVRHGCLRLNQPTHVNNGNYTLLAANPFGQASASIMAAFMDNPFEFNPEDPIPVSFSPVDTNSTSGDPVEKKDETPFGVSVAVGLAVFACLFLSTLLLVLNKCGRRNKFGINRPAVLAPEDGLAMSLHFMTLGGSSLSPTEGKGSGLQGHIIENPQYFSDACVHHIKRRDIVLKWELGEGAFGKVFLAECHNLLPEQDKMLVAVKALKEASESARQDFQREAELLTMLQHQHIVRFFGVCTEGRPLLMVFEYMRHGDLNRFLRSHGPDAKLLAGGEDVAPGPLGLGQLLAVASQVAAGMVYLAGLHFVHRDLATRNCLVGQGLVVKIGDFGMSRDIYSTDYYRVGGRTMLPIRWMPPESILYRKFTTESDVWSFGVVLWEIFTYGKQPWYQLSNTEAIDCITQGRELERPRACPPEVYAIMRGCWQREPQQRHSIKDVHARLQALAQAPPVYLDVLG

IC50 [1]: 1800 nM and 1700 nM | inhibition at 0.1 µM [2]: < 39% | inhibition at 0.1 µM ([3]; 100 nM compound, HotSpot, read-out: % Enzyme Inhibition @ 100 nM Trk C): > 60% | IC50 ([3]; Trk C): 55.1 nM | selectivity for Trk C inhibition over IGF-1R ([3]; Trk C over IGF-1R): about 60 fold | selectivity for Trk C inhibition over IR ([3]; Trk C over IR): about 30 fold
Compound: CC(C)c1cc(Nc2nc(N3CCCC3C(=O)N(C)C)nc3c2CCC3)n[nH]1 (single isomer, unassigned) [Compound 20b, 1-(4-(5-isopropyl-1H-pyrazol-3-ylamino)-6,7-dihydro-5H-cyclopenta[d]pyrimidin-2-yl)-N,N-dimethylpyrrolidine-2-carboxamide]
